# Reference: patent US12241058B2, “Recombinant microbial system for directed evolution of glycocins and method of preparation thereof” (COUNCIL OF SCIENTIFIC & INDUSTRIAL RESEARCH, priority 2018, dated 2025)
# Legend:
# L. monocytogenes EGD-e = test: Agar diffusion test (ADT) of cell lysates, zone of growth inhibition, with PAS staining for glycosylation; assay type: cell-based, Listeria monocytogenes; details: ADT against L. monocytogenes, cleavage buffer treated cell lysate, glycosylation by PAS staining
# L. monocytogenes = test: Determination of the MIC against L. monocytogenes (96-well broth dilution); assay type: cell-based, Listeria monocytogenes; details: Minimum Inhibitory Concentration against L. monocytogenes, 18 h at 37° C.
# Method: One colony of an indicator strain (L. monocytogenes) was picked from an NB agar plate, inoculated to liquid NB medium and grown at 37° C., in a shaking incubator until OD^600 nm of 0.5 was reached. Then, the culture was diluted with NB medium and serial twofold dilutions with NB medium were made. Hundred microliters of Enterocin 96 solution (1 mg/ml in MQ) were transferred to a 96-well plate and mixed with 100 μl previously prepared cell suspension of sensitive strain. Similarly, positive control Nisin (1 mg/ml in MQ, Sigma Cat. # N5764), 100 μl mixture of NB medium with the Listeria, and negative controls (media alone, untreated indicator strain). 100 μL mixture of NB medium were prepared and dispersed in the same 96-well plates. The plate was incubated for 18 h at 37° C. in a shaking incubator. After incubation, the growth of bacteria was evaluated visually and by a plate reader. The analyses were performed in triplicate. Similarly, MIC of other variants of Enterocin 96 (neo-glycocins) was determined using above described method.
# human red blood cells = test: Hemolytic assay; assay type: cell-based
# Method: Samples were prepared within 3 h of performing the assay. Neo-glycocins stock solutions of 1 mg/ml were prepared by dissolving the neo-glycocins in PBS (10 mM phosphate buffer, pH 7.4); the samples were mixed by inversion to ensure neo-glycocins were completely dissolved in PBS. To prepare the Human Red Blood Cell (hRBC) solution, blood was collected from healthy individual and RBCs were isolated following standard procedure. Informed consent was acquired from all donors and this work was carried out in compliance with the ethical committee guidelines of CSIR-IMTECH with IEC NO SUIEC/14/03.
# 2 ml whole blood from healthy individual was centrifuged for 30 mins at 1000 rpm(4° C.). Layer of RBCs was collected and diluted with equal volume of 1×PBS and mixture was centrifuged three times for 10 mins at 1000 rpm, 4° C. To prepare 4% RBC solution, 1 ml of RBC were mixed with 24 ml 1×PBS. To examine the hemolysis property of neo-glycocins (75-1000 μM), 20 μl of freshly prepared neo-glycocins solution was mixed with 180 μl of freshly prepared hRBC solution and was placed at 37° C. for 1 h. A total of 20 μl of PBS buffer only and 20 μl of Triton X-100 1% (w/v) were mixed with 180 μl of hRBC solution as negative and positive controls, respectively. After 1 h of incubation, all samples were centrifuged at 2500 rpm for 10 min. A total of 100 μl of supernatant was collected, and the release of hemoglobin was monitored by measuring the absorbance of the supernatant at 570 nm with a Multiskan Go plate-reader (Thermo Scientific). Hemolysis percentage for each sample was calculated by dividing sample's absorbance on positive control absorbance (complete hemolysis) multiplied by 100.
# THP-1 cells = test: Cytotoxicity MTT reduction assay; assay type: cell-based; details: 50% cell death, THP-1 cells, MTT, 18-24 hours
# Method: (§1) Cytotoxicity of Enterocin 96 and its variants (neo-glycocins) against THP-1 cells and anti-cancer potential against HepG2 cells was measured by the conventional MTT reduction assay. HepG2 and THP-1 cells (1×10^4 cells/well) were seeded into the 96-well plate and cultured at 37° C. in an atmosphere of 5% CO2 to allow them to adhere overnight. After 24 hours, the cells were exposed to Enterocin 96 and its variants (neo-glycocins) at various concentrations (75-1000 μM) for 18-24 hours. After the incubation period, 150 μl media and the suspended cells were discarded and washed with 200 μl PBS. After that, 200 μl of fresh media was added followed by 20 μl of MTT (5 mg/mL) into each well in the 96-well plate and incubated for 4 h in CO2 incubator. One hundred and fifty microlitres of medium with MTT was removed from every well and 100 μl DMSO was added to each well to solubilize the formazan crystal by incubating for 20 min in CO2 incubator. Finally, the plates were read at 570 nm by using Multiskan Go plate-reader (Thermo Scientific) and then percentage of cell viability was determined.
# HepG2 cells = test: Anti-cancer MTT reduction assay; assay type: cell-based; details: 50% cell (cancerous) death, HepG2 cells, MTT, 18-24 hours
# Method: as §1
substance,measurement,setting,value
SEQ ID NO: 43: variant of Enterocin 96: MASKRDCNLMKACCAGQAVTYAIQSLLNRLGGDSSDPAGCNDIVRKYCK (Variant of Enterocin 96),Zone of inhibition as well as glycosylation positive,L. monocytogenes EGD-e,positive
same,Zone of inhibition as well as glycosylation positive,L. monocytogenes EGD-e; listed as H24Q,Yes
SEQ ID NO: 44: variant of Enterocin 96: MASKRDCNLMKARCAGQAVTYAIHSLLNRLGGDSSDPAGCNDIVRKYCK (Variant of Enterocin 96),Zone of inhibition as well as glycosylation positive,L. monocytogenes EGD-e,positive
same,Zone of inhibition as well as glycosylation positive,L. monocytogenes EGD-e; listed as C13R,Yes
SEQ ID NO: 46: variant of Enterocin 96: MASKRDCNLMKACCAEQAVTYAIHSLLNRLGGDSSDPAGCNDIVRKYCK (Variant of Enterocin 96),Zone of inhibition as well as glycosylation positive,L. monocytogenes EGD-e,positive
SEQ ID NO: 47: variant of Enterocin 96: MASKRDCNLMKACCAGQAVTYAIHSLLNRLGGDSSVPAGCNDIVRKYCK (Variant of Enterocin 96),Zone of inhibition as well as glycosylation positive,L. monocytogenes EGD-e,positive
same,Zone of inhibition as well as glycosylation positive,L. monocytogenes EGD-e; listed as D36V,Yes
SEQ ID NO: 48: variant of Enterocin 96: MASKRDCNLMKACCAGQAVTYAIHSLLYRLGGDSSDPAGCNDIVRKYCK (Variant of Enterocin 96),Zone of inhibition as well as glycosylation positive,L. monocytogenes EGD-e,positive
same,Zone of inhibition as well as glycosylation positive,L. monocytogenes EGD-e; listed as N28Y,Yes
SEQ ID NO: 49: variant of Enterocin 96: MASKRDCNLMKACCAGHAVTYAIHSLLKRLGGDSSDPAGCNDIVRKYCK (Variant of Enterocin 96),Zone of inhibition as well as glycosylation positive,L. monocytogenes EGD-e,positive
same,Zone of inhibition as well as glycosylation positive,L. monocytogenes EGD-e; listed as Q17H-N28K,Yes
SEQ ID NO: 50: variant of Enterocin 96: MASKRDCNLMKACCAGQAVTYAIHSLLNRLGGDSSDPAGSNDIVRKYCK (Variant of Enterocin 96),Zone of inhibition as well as glycosylation positive,L. monocytogenes EGD-e,positive
same,Zone of inhibition as well as glycosylation positive,L. monocytogenes EGD-e; listed as C40S,Yes
SEQ ID NO: 51: variant of Enterocin 96: MASKHDCNLMKACCAGQAVTYAIHSLLNRLGGDSSDPAGCNDIVRKYCK (Variant of Enterocin 96),Zone of inhibition as well as glycosylation positive,L. monocytogenes EGD-e,positive
same,Zone of inhibition as well as glycosylation positive,L. monocytogenes EGD-e; listed as R5H,Yes
SEQ ID NO: 52: variant of Enterocin 96: MASKRDCNLMKACCAGQAVTYGIHSLLNRLGGDSSDPAGCNDIVRKYCK (Variant of Enterocin 96),Zone of inhibition as well as glycosylation positive,L. monocytogenes EGD-e,positive
same,Zone of inhibition as well as glycosylation positive,L. monocytogenes EGD-e; listed as A22G,Yes
SEQ ID NO: 53: variant of Enterocin 96: MASKRDCNLMKACCAGLAVTYAIHSLLNRLGGDSSDPAGCNDIVRKYCK (Variant of Enterocin 96),Zone of inhibition as well as glycosylation positive,L. monocytogenes EGD-e,positive
same,Zone of inhibition as well as glycosylation positive,L. monocytogenes EGD-e; listed as Q17L,Yes
SEQ ID NO: 54: variant of Enterocin 96: MASKRDCNLMKACCAGQAVTYAIHSLLNRLGGDPSDPAGCNDIVRKYCK (Variant of Enterocin 96),Zone of inhibition as well as glycosylation positive,L. monocytogenes EGD-e,neither showed any bioactivity nor glycosylation
SEQ ID NO: 55: variant of Enterocin 96: MASKRDCNLMKACCAGQAVTYAIHSLLNRLGGNSSDPAGCNDIVRKYCK (Variant of Enterocin 96),Zone of inhibition as well as glycosylation positive,L. monocytogenes EGD-e,neither showed any bioactivity nor glycosylation
SEQ ID NO: 56: variant of Enterocin 96: MASKRDCNLMKACCAGQAVTYAIHSLLNRLGGDFSDPAGCNDIVRKYCK (Variant of Enterocin 96),Zone of inhibition as well as glycosylation positive,L. monocytogenes EGD-e,neither showed any bioactivity nor glycosylation
SEQ ID NO: 57: variant of Enterocin 96: MASKRDCNLMKACCAGQAVTYAIHSLLNRLGGDSSDWRCK (Variant of Enterocin 96),Zone of inhibition as well as glycosylation positive,L. monocytogenes EGD-e,neither showed any bioactivity nor glycosylation
SEQ ID NO: 58: variant of Enterocin 96: MASKRDCNLMKACCAGQAVTYAIHSLLNRLGGDSGDPAGCNDIVRKYCK (Variant of Enterocin 96),Zone of inhibition as well as glycosylation positive,L. monocytogenes EGD-e,neither showed any bioactivity nor glycosylation
SEQ ID NO: 59: variant of Enterocin 96: MASKRDCNLMKACCAGQAVTYAIHSLLNRLGGDSSEPAGCNDIVRKYCK (Variant of Enterocin 96),Zone of inhibition as well as glycosylation positive,L. monocytogenes EGD-e,neither showed any bioactivity nor glycosylation
variant of Enterocin 96: MASKACCAGQAVTYAIHSLLNRLGGDSSDPAGCNDIVRKYCK (Variant of Enteriocin 96) [SEQ ID NO: 41],Zone of inhibition as well as glycosylation positive,L. monocytogenes EGD-e,positive
same,Zone of inhibition as well as glycosylation positive,L. monocytogenes EGD-e; listed as ECT,Yes
same,Anti-bacterial activity (MIC in μM),L. monocytogenes,>0.54 µM
same,Hemolysis (MHC in μM),human red blood cells,600 µM
same,IC50,THP-1 cells,309.4 ± 0.388 µM
same,IC50,HepG2 cells,167 ± 0.122 µM
variant of Enterocin 96: MASKRDCNLMKACCAEQAVTYAIQSLLNRLGGDSSDPAGCNDIVRKYCK (Variant of Enterocin 96) [SEQ ID NO: 45],Zone of inhibition as well as glycosylation positive,L. monocytogenes EGD-e,positive
same,Zone of inhibition as well as glycosylation positive,L. monocytogenes EGD-e; listed as G16E-H24L,Yes
same,Anti-bacterial activity (MIC in μM),L. monocytogenes,>0.54 µM
same,Hemolysis (MHC in μM),human red blood cells,600 µM
same,IC50,THP-1 cells,167.3 ± 1.39 µM
same,IC50,HepG2 cells,222.3 ± 0.11 µM
variant of Enterocin 96: MASKRDCNLMKACCAGQAVTYAIHSLLNRLGGDSSGPAGCNDIVRKYCK (Variant of Enterocin 96) [SEQ ID NO: 42],Zone of inhibition as well as glycosylation positive,L. monocytogenes EGD-e,positive
same,Zone of inhibition as well as glycosylation positive,L. monocytogenes EGD-e; listed as D36G,Yes
same,Anti-bacterial activity (MIC in μM),L. monocytogenes,>0.54 µM
same,Hemolysis (MHC in μM),human red blood cells,600 µM
same,IC50,THP-1 cells,279.3 ± 0.0769 µM
same,IC50,HepG2 cells,204.2 ± 0.134 µM
